Test results reported in ChEMBL document CHEMBL1201862, “PubChem BioAssay data set” (2004).
Calls of active or inactive are those of the source.

What was measured:
[1] = molecular target: FAD-linked sulfhydryl oxidase ALR (Homo sapiens, UniProt P55789); assay: ALR-catalysed DTT oxidation blockers – biochemical, H2O2 detection, luminescence, cherry-pick, dose response (AID 493248)
[2] = molecular target: Genome polyprotein (dengue virus type 2, UniProt P29990); assay: flavivirus cap methylation enzyme inhibition – biochemical, confirmation dose response, primary screen (AID 588689); type: functional
[3] = tested on: BJ; assay: BJ-TERT-LT-ST fibroblast viability loss – cell-based, RAS-independent, luminescence, dose response (AID 1935); type: functional; details: Homo sapiens;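 further: BJ fibroblasts immortalized with TERT plus LT and ST oncogenes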
[4] = tested on: BJ; assay: cells; type: functional, cell-based; details: Homo sapiens
[5] = DRD fibroblast viability loss – cell-based, non-viral oncogenic, luminescence, dose response (AID 1934); type: functional; details: Homo sapiens
[6] = tested on: BJ; assay: BJ-TERT fibroblast viability loss – cell-based, RAS-independent, luminescence, dose response (AID 1933); type: functional; details: Homo sapiens
[7] = non-specific 3'UTR reporter inhibition in Clone20-Shn3RL – cell-based, Renilla luciferase, cherry-picked, counter-screen for Shn3 inhibitor project, dose response (AID 624133); type: functional
[8] = reduction of Shn3 3'UTR-driven luciferase in osteoblasts – cell-based, Clone20 osteoblasts, firefly luciferase, cherry-picked, dose response (AID 624132); type: functional;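 further: firefly luciferase luminescence from reporter carrying the Shn3 3'UTR in osteoblasts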
[9] = loss of viability in HepG2 cells – cell-based, CellTiter-Glo, cherry-picked, cytotoxicity control for Shn3 inhibitor project, dose response (AID 624134); type: functional
[10] = tested on: H4; assay: Luminescence Cell-Based Dose Response HTS to Identify Activators of 5'UTR Stem-Loop Driven Prion Protein mRNA Translation in H4 Neuroglioblastoma Cells. [Related pubchem assays: 1829 (Project Summary), 1814 (Primary HTS)]; type: functional; details: Homo sapiens
[11] = Luminescence Cell-Based Dose Response HTS to Identify Activators of Luciferase Translation or Activity in H4 […] Cells. [Related pubchem assays: 1829 (Project Summary), 1814 (Primary HTS)]; type: functional
[12] = molecular target: Large T antigen (Simian virus 40, UniProt P03070); type: functional, Betapolyomavirus macacae;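 further: Confirmatory-stage PubChem screen for compounds that inhibit SV40 T antigen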
[13] = molecular target: T1, Calpain-2 catalytic subunit (Sus scrofa, UniProt P43367); assay: m-calpain protease blockers, concentration series – biochemical, fluorogenic peptide substrate, dose response (AID 1420); type: functional
T1 sequence (P43367 whole entry): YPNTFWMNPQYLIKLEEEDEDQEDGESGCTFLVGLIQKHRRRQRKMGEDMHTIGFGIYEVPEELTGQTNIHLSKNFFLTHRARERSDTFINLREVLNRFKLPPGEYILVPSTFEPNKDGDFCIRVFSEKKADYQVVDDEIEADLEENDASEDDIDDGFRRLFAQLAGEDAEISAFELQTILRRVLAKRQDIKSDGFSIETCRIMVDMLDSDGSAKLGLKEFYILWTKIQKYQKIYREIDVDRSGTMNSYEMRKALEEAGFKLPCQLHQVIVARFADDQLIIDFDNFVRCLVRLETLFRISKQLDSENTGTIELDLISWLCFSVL

[14] = alpha-synuclein stem-loop luciferase translation blockers – H4 neuroglioma cells, luminescence, confirmation (AID 1988); type: functional, cell-based
[15] = molecular target: T2, Protein skinhead-1 (Caenorhabditis elegans, UniProt P34707); type: functional
T2 sequence (P34707 whole entry): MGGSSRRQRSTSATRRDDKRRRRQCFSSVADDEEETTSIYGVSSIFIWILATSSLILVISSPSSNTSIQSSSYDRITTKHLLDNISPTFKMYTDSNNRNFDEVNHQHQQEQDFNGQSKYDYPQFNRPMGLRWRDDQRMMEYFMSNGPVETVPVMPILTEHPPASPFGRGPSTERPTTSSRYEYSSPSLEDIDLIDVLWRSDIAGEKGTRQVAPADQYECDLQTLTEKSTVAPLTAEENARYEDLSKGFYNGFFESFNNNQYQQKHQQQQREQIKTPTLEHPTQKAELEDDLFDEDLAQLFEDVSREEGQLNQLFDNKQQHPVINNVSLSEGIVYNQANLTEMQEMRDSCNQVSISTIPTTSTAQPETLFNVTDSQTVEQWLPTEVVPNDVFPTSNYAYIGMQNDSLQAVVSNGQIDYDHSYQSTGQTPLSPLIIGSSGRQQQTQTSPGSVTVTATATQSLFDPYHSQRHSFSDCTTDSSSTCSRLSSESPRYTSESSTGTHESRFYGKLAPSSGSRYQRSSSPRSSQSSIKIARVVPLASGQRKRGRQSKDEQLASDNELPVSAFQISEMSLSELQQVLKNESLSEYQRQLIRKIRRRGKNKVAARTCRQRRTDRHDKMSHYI

[16] = molecular target: Luciferin 4-monooxygenase (Photinus pyralis, UniProt P08659); assay: inhibition of purified Photinus pyralis luciferase – biochemical, luminescence, dose response (AID 1891)
[17] = Luminescence Cell-Based Dose Response HTS to Identify Inhibitors of 5'UTR Stem-Loop Driven Prion Protein mRNA Translation in H4 Neuroglioblastoma Cells. [Related pubchem assays: 1827 (Project Summary), 1813 (Primary HTS)]; type: functional
[18] = Luminescence Cell-Based Dose Confirmation HTS to Identify Inhibitors of Platelet Dense Granule Release. [Related pubchem assays: 1663 (Primary HTS), 1678 (Summary of Project)]; type: functional
[19] = tested on: HEK293; assay: EBV LMP1 TES2 canonical NF-kB signalling blockers – cell-based, HEK293, luciferase, cherry-pick, dose response (AID 588343); type: functional; details: Homo sapiens
[20] = microbe, parasite or virus in culture; type: functional; details: Mycobacterium tuberculosis

Chain of FAD-linked sulfhydryl oxidase ALR (P55789 whole entry): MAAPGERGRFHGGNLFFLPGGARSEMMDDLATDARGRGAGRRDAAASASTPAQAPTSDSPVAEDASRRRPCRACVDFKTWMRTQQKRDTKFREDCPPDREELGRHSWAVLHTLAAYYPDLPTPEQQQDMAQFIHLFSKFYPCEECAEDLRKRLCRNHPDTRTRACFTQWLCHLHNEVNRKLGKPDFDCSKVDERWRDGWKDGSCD
Chain of Genome polyprotein (P29990 2492-3391 limits assumed): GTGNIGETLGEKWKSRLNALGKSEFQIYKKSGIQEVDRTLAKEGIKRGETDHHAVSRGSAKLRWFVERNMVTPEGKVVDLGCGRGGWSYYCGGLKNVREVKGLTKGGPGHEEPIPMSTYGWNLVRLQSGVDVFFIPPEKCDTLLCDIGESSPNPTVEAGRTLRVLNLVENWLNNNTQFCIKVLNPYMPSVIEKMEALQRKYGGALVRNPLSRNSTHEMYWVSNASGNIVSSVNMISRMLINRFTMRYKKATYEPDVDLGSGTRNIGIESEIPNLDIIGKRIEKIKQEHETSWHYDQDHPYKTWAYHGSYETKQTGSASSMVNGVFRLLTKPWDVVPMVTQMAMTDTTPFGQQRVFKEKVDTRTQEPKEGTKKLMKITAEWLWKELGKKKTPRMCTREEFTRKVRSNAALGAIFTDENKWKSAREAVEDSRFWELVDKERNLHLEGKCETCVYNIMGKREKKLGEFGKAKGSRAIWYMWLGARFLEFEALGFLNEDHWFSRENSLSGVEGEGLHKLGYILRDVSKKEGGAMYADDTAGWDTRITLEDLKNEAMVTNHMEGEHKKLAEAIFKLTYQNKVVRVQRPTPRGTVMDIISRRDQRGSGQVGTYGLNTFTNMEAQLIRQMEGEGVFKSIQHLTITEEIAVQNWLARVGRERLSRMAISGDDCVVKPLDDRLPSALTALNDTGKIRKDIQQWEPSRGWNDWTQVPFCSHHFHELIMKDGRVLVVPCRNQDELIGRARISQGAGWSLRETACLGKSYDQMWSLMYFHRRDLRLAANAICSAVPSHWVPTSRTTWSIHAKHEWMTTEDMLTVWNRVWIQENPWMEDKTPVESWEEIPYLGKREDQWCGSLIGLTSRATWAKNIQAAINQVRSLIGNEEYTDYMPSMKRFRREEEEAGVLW
Chain of Large T antigen (P03070 whole entry): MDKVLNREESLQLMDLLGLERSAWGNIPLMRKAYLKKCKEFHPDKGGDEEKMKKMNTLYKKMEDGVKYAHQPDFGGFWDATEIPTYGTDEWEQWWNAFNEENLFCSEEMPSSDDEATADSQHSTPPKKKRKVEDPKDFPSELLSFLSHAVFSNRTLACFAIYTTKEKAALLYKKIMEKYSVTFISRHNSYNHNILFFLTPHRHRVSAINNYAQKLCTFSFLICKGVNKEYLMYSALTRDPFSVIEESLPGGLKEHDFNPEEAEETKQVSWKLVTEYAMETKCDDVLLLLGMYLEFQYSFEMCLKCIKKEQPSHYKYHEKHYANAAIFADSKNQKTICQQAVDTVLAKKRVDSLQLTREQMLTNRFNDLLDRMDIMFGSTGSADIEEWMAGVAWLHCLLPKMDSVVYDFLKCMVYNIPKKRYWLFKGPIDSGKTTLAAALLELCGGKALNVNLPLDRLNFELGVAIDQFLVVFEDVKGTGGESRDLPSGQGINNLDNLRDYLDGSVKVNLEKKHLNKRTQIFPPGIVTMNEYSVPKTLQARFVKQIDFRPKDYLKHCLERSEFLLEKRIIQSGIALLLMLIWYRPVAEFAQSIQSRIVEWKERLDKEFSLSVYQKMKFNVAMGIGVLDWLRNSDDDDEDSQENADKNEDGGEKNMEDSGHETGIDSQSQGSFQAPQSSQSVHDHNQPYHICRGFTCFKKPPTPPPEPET
Chain of Luciferin 4-monooxygenase (P08659 whole entry): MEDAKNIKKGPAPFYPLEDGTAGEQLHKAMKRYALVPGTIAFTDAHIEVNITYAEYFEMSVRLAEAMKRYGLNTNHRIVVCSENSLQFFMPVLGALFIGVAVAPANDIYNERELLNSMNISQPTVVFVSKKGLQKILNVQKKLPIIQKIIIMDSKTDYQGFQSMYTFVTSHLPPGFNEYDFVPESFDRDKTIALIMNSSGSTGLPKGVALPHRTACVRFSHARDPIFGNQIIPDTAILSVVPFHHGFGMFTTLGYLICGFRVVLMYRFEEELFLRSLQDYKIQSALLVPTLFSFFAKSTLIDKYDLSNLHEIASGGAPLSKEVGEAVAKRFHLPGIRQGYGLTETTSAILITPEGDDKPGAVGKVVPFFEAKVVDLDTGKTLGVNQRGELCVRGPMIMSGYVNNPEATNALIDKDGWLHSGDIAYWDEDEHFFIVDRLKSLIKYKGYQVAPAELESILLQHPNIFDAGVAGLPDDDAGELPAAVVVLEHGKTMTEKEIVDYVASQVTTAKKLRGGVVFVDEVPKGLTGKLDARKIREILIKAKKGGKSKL

CC(=O)c1ccc(NC(=O)N2CCN(c3ccc(C)cc3)C(C)C2)cc1 (stereo not drawn)
AC50 [1]: 3.56 µM (active)

CC1(C)CC(=O)C(C(C2=C(O)CC(C)(C)CC2=O)c2ccc(O)c([N+](=O)[O-])c2)=C(O)C1
IC50 [2]: 9.49 µM (active)

Cc1nc2ccc(S(=O)(=O)NCC(=O)N(C)Cc3ccccc3)cc2s1
AC50 [1]: 1.05 µM (active)

COc1ccccc1N=C(S)N(Cc1ccco1)Cc1cc2ccc(C)c(C)c2nc1O
EC50 [3]: 0.525 µM (active) | EC50 [4]: 20.2 µM (inconclusive) | EC50 [5]: 0.685 µM (active) | EC50 [6]: 0.717 µM (inconclusive)

Cc1cc(C)cc(-n2ncc3c2CCCC3NC(=O)c2cc(C)n(C)n2)c1 (stereo not drawn)
AC50 [1]: 4.51 µM (active)

COc1ccc(-n2nc3c(N4CCC(C(=O)NCC(C)c5ccccc5)CC4)nnc(C)c3c2C)cc1 (stereo not drawn)
AC50 [7]: 36.7 µM (active) | AC50 [8]: 3.25 µM (active) | AC50 [9]: 30.2 µM (active)

O=C(O)CN1C(=O)/C(=C\c2ccccc2OCc2ccc(Cl)cc2)SC1=S
IC50 [2]: 43.3 µM (active)

O=C(Cc1cccs1)Nc1ccc(-c2nc3ccccc3[nH]2)cc1
EC50 [10]: 0.236 µM (active) | EC50 [11]: 1.51 µM (active)

CC(C)(C)c1cc(-c2nnc(S)n2-c2ccccc2F)[nH]n1
AC50 [1]: 2.1 µM (active)

Oc1ccc(N2CCN(C(c3ccncc3)c3nnnn3C3CCCC3)CC2)cc1 (stereo not drawn)
IC50 [12]: 5.61 µM (active)

CC(C)CCNc1nc2c(c(=O)n(Cc3cccc(F)c3)c(=O)n2C)n1C
IC50 [13]: 44.7 µM (not active)

O=C(/C=C/Nc1ccc(Br)cc1F)c1ccccc1
EC50 [14]: 4.27 µM (active) | IC50 [15]: > 100 µM (inactive) | EC50 [16]: 0.542 µM (active) | EC50 [17]: 9.38 µM (active) | EC50 [18]: 4.16 µM (active) | AC50 [19]: 1.65 µM (active)

COc1ccc(Nc2nc(N)c(C(=O)c3ccc(F)cc3)s2)cc1
EC50 [3]: 37.5 µM (active) | EC50 [4]: 54.4 µM (inconclusive) | EC50 [5]: 2.8 µM (inconclusive) | EC50 [6]: 2.89 µM (inconclusive)

CC1(C)Nc2ccccc2N(CC(=O)N2CCCCC2)C1=O
AC50 [1]: 1.96 µM (active)

Oc1ccccc1/C=N/NC(=S)NC1CC2CC1C1C=CCC21 (stereo not drawn)
CC50 [20]: 13.9 µM (active)

CC1CCCC/C1=N\NC(=S)NCCc1ccccc1 (stereo not drawn)
CC50 [20]: > 40 µM (active)

CN(C)c1ccc(/C=N/NS(=O)(=O)c2ccc(Br)cc2)cc1
AC50 [1]: 33.5 µM (active)

Cc1ccc(N/N=C2\CCS(=O)(=O)c3sccc32)cc1
IC50 [13]: > 50 µM (not active) | AC50 [1]: 0.311 µM (active)
